According to article PMC9007972, “Structural and biochemical evidence that ATP inhibits the cancer biomarker human aldehyde dehydrogenase 1A3” (Communications Biology, 2022):
Each block holds one molecule with its values, some of them ahead of it.

What was measured:
[1] = target: T1, ALDH3A1 (Homo sapiens, UniProt P30838); experiment: fluorimetric dehydrogenase assay with hexanal, […] ATP; format: biochemical; settings: read-out: % remaining activity at 2 mM
T1 construct: His6-tagged, pET-30 Xa/LIC
T1 sequence (P30838 2-453): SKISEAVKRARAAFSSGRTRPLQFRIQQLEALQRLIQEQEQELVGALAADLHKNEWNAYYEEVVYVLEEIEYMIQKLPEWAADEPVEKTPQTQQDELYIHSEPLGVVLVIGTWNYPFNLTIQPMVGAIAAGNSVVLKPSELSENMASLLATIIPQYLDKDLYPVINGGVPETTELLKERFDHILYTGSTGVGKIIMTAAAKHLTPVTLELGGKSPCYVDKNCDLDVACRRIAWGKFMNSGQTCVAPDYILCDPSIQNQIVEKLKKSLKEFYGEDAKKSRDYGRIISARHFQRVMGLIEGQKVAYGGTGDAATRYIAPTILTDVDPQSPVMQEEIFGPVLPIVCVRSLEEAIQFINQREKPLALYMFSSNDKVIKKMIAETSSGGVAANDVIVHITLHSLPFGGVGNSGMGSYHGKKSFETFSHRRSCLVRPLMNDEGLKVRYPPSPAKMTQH

[2] = target: T2, ALDH1A2 (Homo sapiens, UniProt O94788); experiment: as above; format: biochemical; settings: read-out: % remaining activity at 2 mM
T2 construct: His6-tagged, pET-30 Xa/LIC
T2 sequence (O94788 1-518): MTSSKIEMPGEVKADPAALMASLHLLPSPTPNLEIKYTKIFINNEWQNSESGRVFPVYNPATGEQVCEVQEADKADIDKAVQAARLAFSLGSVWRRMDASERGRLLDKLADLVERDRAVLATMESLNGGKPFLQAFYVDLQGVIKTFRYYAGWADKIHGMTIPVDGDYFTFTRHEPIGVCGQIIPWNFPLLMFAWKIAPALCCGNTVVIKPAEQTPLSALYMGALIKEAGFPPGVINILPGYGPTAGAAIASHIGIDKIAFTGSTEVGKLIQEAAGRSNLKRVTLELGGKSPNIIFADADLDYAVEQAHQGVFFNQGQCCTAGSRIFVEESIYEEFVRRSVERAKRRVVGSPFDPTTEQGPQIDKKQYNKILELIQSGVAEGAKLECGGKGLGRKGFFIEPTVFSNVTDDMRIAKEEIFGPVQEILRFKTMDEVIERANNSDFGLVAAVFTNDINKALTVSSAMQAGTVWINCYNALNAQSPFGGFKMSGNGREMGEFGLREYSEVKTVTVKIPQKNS

[3] = target: T3, ALDH1A1 (Homo sapiens, UniProt P00352); experiment: as above; format: biochemical; settings: read-out: % remaining activity at 2 mM
T3 construct: His6-tagged, pET-30 Xa/LIC
T3 sequence (P00352 2-501): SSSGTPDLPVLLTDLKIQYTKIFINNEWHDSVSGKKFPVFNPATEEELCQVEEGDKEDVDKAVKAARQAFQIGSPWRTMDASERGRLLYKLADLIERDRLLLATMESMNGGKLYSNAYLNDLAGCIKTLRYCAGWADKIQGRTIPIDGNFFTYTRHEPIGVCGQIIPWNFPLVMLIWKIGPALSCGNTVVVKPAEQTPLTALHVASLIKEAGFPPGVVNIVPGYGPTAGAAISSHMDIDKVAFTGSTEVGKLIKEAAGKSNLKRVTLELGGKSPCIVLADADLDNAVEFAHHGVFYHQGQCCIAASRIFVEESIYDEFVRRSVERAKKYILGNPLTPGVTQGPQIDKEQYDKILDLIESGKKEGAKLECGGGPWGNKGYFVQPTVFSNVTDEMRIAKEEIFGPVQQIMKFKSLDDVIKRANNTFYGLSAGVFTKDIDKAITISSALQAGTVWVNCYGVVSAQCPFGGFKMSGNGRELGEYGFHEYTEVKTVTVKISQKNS

[4] = target: T4, ALDH1A3 (Homo sapiens, UniProt P47895); experiment: biochemical
T4 sequence (P47895 2-512): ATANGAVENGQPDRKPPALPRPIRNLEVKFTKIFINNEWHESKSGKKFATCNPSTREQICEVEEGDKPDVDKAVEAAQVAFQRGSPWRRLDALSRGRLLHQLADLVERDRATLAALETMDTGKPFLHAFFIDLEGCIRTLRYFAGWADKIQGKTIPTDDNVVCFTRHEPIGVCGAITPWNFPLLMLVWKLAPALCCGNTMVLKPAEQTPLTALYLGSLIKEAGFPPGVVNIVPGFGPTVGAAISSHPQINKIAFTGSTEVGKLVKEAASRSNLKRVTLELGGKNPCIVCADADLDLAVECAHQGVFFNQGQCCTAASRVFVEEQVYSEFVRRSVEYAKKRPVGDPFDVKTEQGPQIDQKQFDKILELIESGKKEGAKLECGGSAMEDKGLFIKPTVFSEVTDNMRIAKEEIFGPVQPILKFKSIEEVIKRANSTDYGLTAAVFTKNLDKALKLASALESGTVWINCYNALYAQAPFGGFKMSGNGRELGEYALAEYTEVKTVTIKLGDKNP

[5] = target: T4, ALDH1A3; experiment: X-ray crystal structure ([…] Å); Km from enzyme kinetics without Mg2+; format: biochemical; parameters: His6-tagged, pET-30 Xa/LIC
[6] = target: T4, ALDH1A3; experiment: dehydrogenase activity with hexanal, […] ADP (remaining activity); format: biochemical; parameters: His6-tagged, pET-30 Xa/LIC; settings: read-out: % remaining activity at 0.5 mM

Structure (SMILES): Nc1ncnc2c1ncn2[C@@H]1O[C@H](CO[P@@](=O)(O)O[P@](=O)(O)OP(=O)(O)O)[C@@H](O)[C@H]1O [ATP]
- remaining activity at 2000 µM [1]: 25 ± 1%
- remaining activity at 2000 µM [2]: 68 ± 2%
- remaining activity at 2000 µM [3]: 43 ± 1%
- Ki [4]: 480 ± 80 µM

- Km [5]: 24 ± 2 µM
Structure (SMILES): NC(=O)c1ccc[n+]([C@@H]2O[C@H](COP(=O)([O-])OP(=O)(O)OC[C@H]3O[C@@H](n4cnc5c(N)ncnc54)[C@H](O)[C@@H]3O)[C@@H](O)[C@H]2O)c1 [NAD^+]

- remaining activity at 500 µM [6]: 56 ± 4%
Structure (SMILES): Nc1ncnc2c1ncn2[C@@H]1O[C@H](COP(=O)(O)OP(=O)(O)O)[C@@H](O)[C@H]1O [ADP]
